We go through seven compounds from patent US10792377B2, “Compounds and method for imaging cancer” (Vanderbilt University, priority 2017, dated 2020).

For one series, the target named is T1, ovine COX-1 (Ovis aries, UniProt P05979).
T1 sequence (P05979 25-600): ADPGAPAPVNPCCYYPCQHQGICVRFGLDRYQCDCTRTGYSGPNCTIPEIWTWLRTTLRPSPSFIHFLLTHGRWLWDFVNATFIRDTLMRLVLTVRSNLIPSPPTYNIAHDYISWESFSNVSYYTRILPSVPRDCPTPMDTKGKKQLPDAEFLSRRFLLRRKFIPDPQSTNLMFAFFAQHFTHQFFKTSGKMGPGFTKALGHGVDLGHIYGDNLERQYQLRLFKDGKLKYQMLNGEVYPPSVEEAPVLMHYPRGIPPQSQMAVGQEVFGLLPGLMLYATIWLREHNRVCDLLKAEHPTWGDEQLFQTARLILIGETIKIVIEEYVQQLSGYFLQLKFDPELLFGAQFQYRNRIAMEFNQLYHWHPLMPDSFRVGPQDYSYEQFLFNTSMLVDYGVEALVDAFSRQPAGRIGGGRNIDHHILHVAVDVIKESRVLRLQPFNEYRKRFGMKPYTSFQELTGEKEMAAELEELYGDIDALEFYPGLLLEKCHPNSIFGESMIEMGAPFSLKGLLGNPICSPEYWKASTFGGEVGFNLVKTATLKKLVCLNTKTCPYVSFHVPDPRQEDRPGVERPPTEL
As to the kind of experiment: In vitro purified COX-1 inhibition assay (TLC, 14C-arachidonic acid). It is filed as biochemical. As for the experimental part:
(§1) The in vitro cyclooxygenase (ovine COX-1 or human COX-2) inhibitory activities of these probes were tested by a previously described TLC assay (FIGS. 19-21). Briefly, reaction mixtures of 200 μL consisted of hematin-reconstituted protein in 100 mM Tris-HCl, pH 8.0, 500 μM phenol, and [1-^14C]arachidonic acid (50 μM, about 55-57 mCi/mmol, Perkin Elmer).
Inhibition Assay Using Purified COX-1 and COX-2. Inhibition of purified ovine COX-1 or mouse COX-2 by test compounds was assayed by a previously described method, which quantifies the conversion of [1-^14C]arachidonic acid to [1-^14C]prostaglandin products. Reaction mixtures of 200 ∝L consisted of hematin-reconstituted protein in 100 mM Tris-HCl, pH 8.0, 500 μM phenol, and [1-^14C]arachidonic acid (50 μM, ˜55-57 mCi/mmol, Perkin Elmer). […] Reactions were terminated by solvent extraction in diethyl ether:methanol:1 M citrate buffer, pH 4.0 (30:4:1). The phases were separated by centrifugation at 2000 g for 2 min, and the organic phase was spotted on a thin-layer chromatography plate (EMD Kieselgel 60, VWR). The plate was developed in ethyl acetate:methylene chloride:glacial AcOH (75:25:1) at 4° C. Radiolabeled products were quantified with a radioactivity scanner (Bioscan, Inc., Washington, D.C.).

In the next series the target is T2, murine COX-2 (Mus musculus, UniProt Q05769).
T2 sequence (Q05769 18-604): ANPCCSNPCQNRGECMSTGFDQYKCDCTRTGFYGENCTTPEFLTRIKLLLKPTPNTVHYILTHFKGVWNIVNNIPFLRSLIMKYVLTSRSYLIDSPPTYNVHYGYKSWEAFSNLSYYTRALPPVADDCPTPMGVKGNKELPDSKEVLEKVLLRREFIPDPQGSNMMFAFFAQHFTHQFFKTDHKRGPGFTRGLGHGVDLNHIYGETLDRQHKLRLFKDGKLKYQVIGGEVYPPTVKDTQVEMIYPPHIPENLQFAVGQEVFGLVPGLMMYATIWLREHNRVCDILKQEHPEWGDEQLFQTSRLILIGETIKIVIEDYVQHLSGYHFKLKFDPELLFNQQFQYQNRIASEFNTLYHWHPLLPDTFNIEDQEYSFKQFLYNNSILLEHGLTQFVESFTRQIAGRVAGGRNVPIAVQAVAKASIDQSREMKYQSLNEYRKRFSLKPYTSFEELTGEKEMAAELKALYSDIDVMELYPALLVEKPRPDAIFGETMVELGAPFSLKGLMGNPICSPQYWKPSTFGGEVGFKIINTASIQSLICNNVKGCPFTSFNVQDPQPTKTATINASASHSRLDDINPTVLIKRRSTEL
As to the kind of experiment: In vitro purified COX-2 inhibition assay (TLC, 14C-arachidonic acid). The conditions noted are these: for COX-2 Selectivity Index (COX-1 IC50/COX-2 IC50): in vitro, purified enzymes. It is filed as biochemical. The protocol:
as §1
Inhibition Assay Using Purified COX-1 and COX-2. Inhibition of purified ovine COX-1 or mouse COX-2 by test compounds was assayed by a previously described method, which quantifies the conversion of [1-^14C]arachidonic acid to [1-^14C]prostaglandin products. Reaction mixtures of 200 ∝L consisted of hematin-reconstituted protein in 100 mM Tris-HCl, pH 8.0, 500 μM phenol, and [1-^14C]arachidonic acid (50 μM, ˜55-57 mCi/mmol, Perkin Elmer). For the time-dependent inhibition assay, hematin-reconstituted COX-1 ([…]) was preincubated at 25° C. for 17 min and 37° C. for 3 min with varying inhibitor concentrations in dimethylsulfoxide followed by the addition of [1-^14C]arachidonic acid (50 μM) for 30 s at 37° C. Reactions were terminated by solvent extraction in diethyl ether:methanol:1 M citrate buffer, pH 4.0 (30:4:1). The phases were separated by centrifugation at 2000 g for 2 min, and the organic phase was spotted on a thin-layer chromatography plate (EMD Kieselgel 60, VWR). The plate was developed in ethyl acetate:methylene chloride:glacial AcOH (75:25:1) at 4° C. Radiolabeled products were quantified with a radioactivity scanner (Bioscan, Inc., Washington, D.C.).

A further series addresses T3, hCOX-2 in 1483 cells (Homo sapiens, UniProt P35354).
T3 construct: cells that express high levels of COX-2 were selected; endogenous in cells; host or cells: 1483 human head and neck squamous cell carcinoma (HNSCC) cells
T3 sequence (P35354 18-604): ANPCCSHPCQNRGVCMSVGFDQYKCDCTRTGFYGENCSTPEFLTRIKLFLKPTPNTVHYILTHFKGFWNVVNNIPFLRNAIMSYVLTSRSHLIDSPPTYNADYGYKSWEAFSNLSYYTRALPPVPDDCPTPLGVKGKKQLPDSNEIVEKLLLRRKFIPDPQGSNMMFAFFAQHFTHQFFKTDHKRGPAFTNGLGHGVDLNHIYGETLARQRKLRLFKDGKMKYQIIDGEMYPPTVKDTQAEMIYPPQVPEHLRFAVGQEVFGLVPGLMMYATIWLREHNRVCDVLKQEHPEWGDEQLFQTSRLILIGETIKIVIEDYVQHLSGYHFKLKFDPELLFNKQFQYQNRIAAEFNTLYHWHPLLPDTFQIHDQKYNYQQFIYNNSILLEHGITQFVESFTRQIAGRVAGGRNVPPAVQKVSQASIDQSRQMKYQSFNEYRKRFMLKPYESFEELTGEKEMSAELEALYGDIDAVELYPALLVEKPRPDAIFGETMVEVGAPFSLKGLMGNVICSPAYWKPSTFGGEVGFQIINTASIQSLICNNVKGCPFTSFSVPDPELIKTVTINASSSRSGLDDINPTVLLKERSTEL
Kind of series: Intact cell COX-2 inhibition assay in 1483 HNSCC cells. Particulars: high throughput screening, intact cancer cells; read-out: COX-2 positive 1483 HNSCC cells IC50. Format: cell-based. As for the experimental part:
Following the promising results from the purified enzyme assay, the ability of compound 1 to inhibit COX-2 in intact cells was examined using a previously reported method. 1483 human head and neck squamous cell carcinoma (1483 HNSCC) cells that express high levels of COX-2 were selected. […]
Cell Culture and In Vitro Intact Cell Metabolism Assay. Inhibition of COX-2 in intact cells by test compounds was assayed by a previously described method. Human 1483 head and neck squamous cell carcinoma (HNSCC) cells (passage 8-18, mycoplasma negative by a polymerase chain reaction detection method) were cultured in DMEM/F12+10% fetal bovine serum+Antibiotic/Antimycotic in 6-well plates to 60% confluence. […] Reactions were terminated and analyzed by thin layer chromatography as described above.

Series [1] concerns 4T1 orthotopic breast cancer xenografts. Kind of series: In vivo image-guidance of chemocoxib A delivery, orthotopic 4T1 breast cancer xenografts. Particulars: tumor homogenate, LC-MS, 49 h after CA-FQ-NPs (1 mg/kg CA, 1 mg/kg FQ, s.c.).
Description: To generate orthotopic breast cancer xenografts, the 4T1 tumor cells (1×10^6 in 200 μL sterile PBS) were injected into the inguinal mammary fat-pads of athymic Balb/C nu/nu female mice (4-6 weeks old, Jax Mice). Tumors were full-grown by 4-5 weeks (tumor volume=length×width^2×0.52).
The animals were dosed with CA-FQ-NPs in PBS (1 mg/kg CA, 1 mg/kg FQ, s.c.) and imaged on a Xenogen IVIS200 optical imaging instrument at 0.5 h, 1 h, 3 h, 6 h, 28 h, and 49 h post-injection. […] After in vivo imaging, the 49 h animals group was euthanized, and brain, muscle, tumor, liver, lung, and kidney tissues were collected (FIG. 32D).
A short description of series [2]: Fluorometry: extinction, quantum yield, fluorescence in DMSO/EtOH. It is filed as physicochemical. As for the experimental part: The TEMPO- and PROXYL-fluorocoxib probes are non-fluorescent (Φfl<0.3) in their non-trapped form, whereas fluorocoxib A or B are highly fluorescent (Φfl[…]) (FIG. 13). However, the absorbance and fluorescence of the TEMPO- and PROXYL-fluorocoxib probes increases in a time-dependent fashion when incubated in a DMSO/EtOH solution (FIGS. 14-15). Referring to FIG. 15, it is noted that at about 16 hours, fluorescence (ex 586 nm) read about 120,000 cps at 607 nm. Turning to FIG. 16, as compared to 5-ROX acid, which had extinction of 36/mM/cm at 580 nm and quantum yield of 0.94 at 604 nm, and fluorocoxib A, which had extinction of 45/mM/cm at 579 nm and quantum yield of 0.93 at 602 nm, fluorocoxib Q1 had extinction of less than 0.4/mM/cm at 586 nm and quantum yield of less than 0.36 at 607 nm. Without wishing to be bound by theory, it is believed that the time-dependent increase in fluorescence and measured fluorescence at 607 nm is the result of reduction/oxidation of fluorocoxib Q1 in the DMSO/EtOH solution (FIG. 16).
Fluorometry. Steady state fluorescence excitation and emission spectra were determined for each compound with a Spex 1681 Fluorolog spectrofluorometer, equipped with a 450 W xenon arc lamp. […]

Setting [3] is: COX-2 IC50, in vitro purified cox assay.
Setting [4] is: mCOX-2 IC50, purified murine COX-2 (63 nM), inhibitor 20 min, then 1-14C-AA (50 μM) 37° C. 30 s, duplicates.

Like-named read-outs stand apart in the source and are kept apart here. Some results are limits rather than exact numbers.

In general, IC50 refers to the concentration needed to halve the response being measured. Take `COc1ccc2c(c1)c(CC(=O)NCCCCNC(=O)c1ccc(C(=O)[O-])c(C3=c4cc5c6c(c4Oc4c3cc3c7c4CCCN7CCC3)CCC[N+]=6CCC5)c1)c(C)n2C(=O)c1ccc(Cl)cc1` [Fluorocoxib B, reference compound]: the 50% inhibitory concentration (IC50) on ovine COX-1 (purified ovine COX-1 (22.5 nM), inhibitor 20 min, then 1-14C-AA (50 μM) 37° C. 30 s, duplicates, read-out: oCOX-1 IC50) is > 25000 nM; on murine COX-2 (purified murine COX-2 (63 nM), inhibitor 20 min, then 1-14C-AA (50 μM) 37° C. 30 s, duplicates, read-out: mCOX-2 IC50), 800 nM. Moreover, the “COX-2 Selectivity Index (COX-1 IC50/COX-2 IC50)” value on murine COX-2 is >31.
`COc1ccc2c(c1)c(CC(=O)NCCCCNC(=O)c1ccc(C3=c4cc5c6c(c4Oc4c3cc3c7c4CCCN7CCC3)CCC[N+]=6CCC5)c(C(=O)Nc3ccc(C(=O)OC4CC(C)(C)N([O])C(C)(C)C4)cc3)c1)c(C)n2C(=O)c1ccc(Cl)cc1` [Compound 3]: the half-maximal inhibitory concentration (IC50) on ovine COX-1 is > 25000 nM; against murine COX-2 (setting [3]) it was 460 nM. Also, the “COX-2 Selectivity Index (COX-1 IC50/COX-2 IC50)” value on murine COX-2 is listed as >54.
In the case of `COc1ccc2c(c1)c(CC(=O)NCCCCNC(=O)CCC(=O)O[C@H]1c3cc4c(cc3[C@@H](c3cc(OC)c(OC)c(OC)c3)[C@H]3C(=O)OC[C@@H]31)OCO4)c(C)n2C(=O)c1ccc(Cl)cc1` [chemocoxib A, reference compound], the IC50 on hCOX-2 in 1483 cells worked out at 200 nM. Further, the “level in tumor tissue” value in series [1] is reported as 3.1 pmol/g tissue.
Turning to `COc1ccc2c(c1)c(CC(=O)NCCCCNC(=O)c1ccc(C3=c4cc5c6c(c4Oc4c3cc3c7c4CCCN7CCC3)CCC[N+]=6CCC5)c(C(=O)OC3CC(C)(C)N([O])C(C)(C)C3)c1)c(C)n2C(=O)c1ccc(Cl)cc1` [Compound 4], the half-inhibitory concentration (IC50) at ovine COX-1 was > 25000 nM; at murine COX-2 (setting [4]) it was 1240 nM. For the same compound, at murine COX-2, the “COX-2 Selectivity Index (COX-1 IC50/COX-2 IC50)” value was >20.
In series [2] (at 580 nm (5-ROX acid), 579 nm (fluorocoxib A), 586 nm (fluorocoxib Q1)), `O=C(O)c1ccc(C(=O)[O-])c(C2=c3cc4c5c(c3Oc3c2cc2c6c3CCCN6CCC2)CCC[N+]=5CCC4)c1` [5-ROX acid] displayed an extinction of 36 mM⁻¹ cm⁻¹. The compound further registered a quantum yield in series [2] (at 604 nm (5-ROX acid), 602 nm (fluorocoxib A), 607 nm (fluorocoxib Q1)) of 0.94.
Turning to `COc1ccc2c(c1)c(CC(=O)NCCCCNC(=O)c1ccc(C(=O)NC3CC(C)(C)N([O])C(C)(C)C3)c(C3=c4cc5c6c(c4Oc4c3cc3c7c4CCCN7CCC3)CCC[N+]=6CCC5)c1)c(C)n2C(=O)c1ccc(Cl)cc1` [Compound 2], the half-maximal inhibitory concentration (IC50) was > 25000 nM against ovine COX-1, 332 nM on murine COX-2 (setting [3]) and 330 nM at murine COX-2 (setting [4]). Moreover, at murine COX-2, the “COX-2 Selectivity Index (COX-1 IC50/COX-2 IC50)” value was >75.
`COc1ccc2c(c1)c(CC(=O)NCCCCNC(=O)c1ccc(C3=c4cc5c6c(c4Oc4c3cc3c7c4CCCN7CCC3)CCC[N+]=6CCC5)c(C(=O)NCC3CC(C)(C)N([O])C3(C)C)c1)c(C)n2C(=O)c1ccc(Cl)cc1` (centres unmarked) [Compound 5]: the values for the IC50 at ovine COX-1 and against murine COX-2 (setting [4]) were > 25000 nM and 1800 nM, respectively. At murine COX-2, the “COX-2 Selectivity Index (COX-1 IC50/COX-2 IC50)” value is listed as >13.
